Drawing on the supplement of paper PMC10307832, this text covers relative viability for one cell line.

What all share (test): relative viability (nuclei count vs DMSO), 5 days (fraction); higher = more cells survive
Compound in the test “Dactolisib + Tozasertib”: Cn1c(=O)n(-c2ccc(C(C)(C)C#N)cc2)c2c3cc(-c4cnc5ccccc5c4)ccc3ncc21 [Dactolisib] + Cc1cc(Nc2cc(N3CCN(C)CC3)nc(Sc3ccc(NC(=O)C4CC4)cc3)n2)n[nH]1 [Tozasertib] (partner 0.1 µM)
The gist of the method: (§1)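 Cells from lung cancer lines were seeded into 1536-well plates and, one day later, dosed by pin tool. Treatments were either a single drug or a fixed dose of an anchor drug with five library-drug doses (not always all listed) in √10 steps. After 5 days, nuclei were stained in a one-step fixation (final 0.05% Triton X-100, 1% formaldehyde, 1 ug/ml Hoechst) and counted on 4× images, and relative viability is the treated-to-vehicle nuclei ratio, as the median of duplicate plates.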

Compound in the test “Dactolisib + Dasatinib”: Cn1c(=O)n(-c2ccc(C(C)(C)C#N)cc2)c2c3cc(-c4cnc5ccccc5c4)ccc3ncc21 [Dactolisib] + Cc1nc(Nc2ncc(C(=O)Nc3c(C)cccc3Cl)s2)cc(N2CCN(CCO)CC2)n1 [Dasatinib] (partner 0.075 µM)
The gist of the method:
as §1

Compound in the test “Dactolisib + Bortezomib”: Cn1c(=O)n(-c2ccc(C(C)(C)C#N)cc2)c2c3cc(-c4cnc5ccccc5c4)ccc3ncc21 [Dactolisib] + CC(C)C[C@H](NC(=O)[C@H](Cc1ccccc1)NC(=O)c1cnccn1)B(O)O [Bortezomib] (partner 0.002 µM)
The gist of the method: as §1

Compound in the test “AZ505 + Linsitinib”: C1CCC(CC1)N(CCNCCC2=C3C(=C(C=C2)O)NC(=O)CO3)C(=O)CCNCCC4=CC(=C(C=C4)Cl)Cl [AZ505] + C[C@]1(O)C[C@@H](c2nc(-c3ccc4ccc(-c5ccccc5)nc4c3)c3c(N)nccn32)C1 [Linsitinib] (partner 1 µM)
The gist of the method:
as §1

In the case of UMC-11, the relative viability in the test with Dactolisib + Tozasertib (first compound 0.002 µM) turned out to be 0.214; in the test with Dactolisib + Tozasertib (first compound 0.006325 µM), 0.198; with Dactolisib + Tozasertib (first compound 0.02 µM), 0.216; in the test with Dactolisib + Tozasertib (first compound 0.06325 µM), 0.221; with Dactolisib + Tozasertib (first compound 0.2 µM) it was 0.23; in the test with Dactolisib + Dasatinib (first compound 0.002 µM), 0.496. Further, the relative viability with Dactolisib + Dasatinib (first compound 0.006325 µM) was 0.419; in the test with Dactolisib + Dasatinib (first compound 0.02 µM) it was 0.37; with Dactolisib + Dasatinib (first compound 0.06325 µM) it was 0.253; in the test with Dactolisib + Dasatinib (first compound 0.2 µM), 0.219; in the test with Dactolisib + Bortezomib (first compound 0.002 µM), 0.732; with Dactolisib + Bortezomib (first compound 0.006325 µM) it was 0.649. Besides, the relative viability stood at 0.57 in the test with Dactolisib + Bortezomib (first compound 0.02 µM); 0.261 in the test with Dactolisib + Bortezomib (first compound 0.06325 µM); 0.18 in the test with Dactolisib + Bortezomib (first compound 0.2 µM); 0.971 with AZ505 + Linsitinib (first compound 0.08 µM); 1.06 in the test with AZ505 + Linsitinib (first compound 0.253 µM); 1.01 with AZ505 + Linsitinib (first compound 0.8 µM). Also, the relative viability with AZ505 + Linsitinib (first compound 2.53 µM) is 0.951; in the test with AZ505 + Linsitinib (first compound 8 µM), 1.05.
